Laboratory results reported in patent US7772274B1, “Docetaxel formulations with lipoic acid” (Scidose, LLC, priority 2009, dated 2010).
Where two headings read alike, the source gives them in different places.

Assay: Solubility of docetaxel in various solvents
Assay type: physicochemical
Conditions: for solubility: read-out: Solubility of Docetaxel, Concentration
Procedure: In consideration of the severe side effects associated with the use of polysorbates, such as TWEEN 80®, as solubilizers of docetaxel, solubility studies were conducted to determine non-toxic solvents that can effectively dissolve docetaxel.
Solubility of docetaxel was assessed using several different solvents that are well-tolerated in subjects, as well as polysorbates for comparison.

solubility (oil or lipid, solvent LABROFAC™ (Capric triglyceride PEG 4 ester Macrogol 200)): 35 mg/mL
solubility (oil or lipid, solvent MAISINE™ 35-1 (Glycerol mono linoleate)): 10 mg/mL
solubility (oil or lipid, solvent PECEOL® (Glycerol mono Oleate 40)): 7 mg/mL
solubility (organic solvent or mixture, solvent 1-lactic acid): 6 mg/mL
solubility (organic solvent or mixture, solvent 2% Lutrol in PEG 400): 15 mg/mL
solubility (organic solvent or mixture, solvent 50% PEG 400/50% PG): 15 mg/mL
solubility (organic solvent or mixture, solvent Acetic acid): 60 mg/mL
solubility (organic solvent or mixture, solvent Benzyl alcohol): 90 mg/mL
solubility (organic solvent or mixture, solvent Benzyl benzoate): 13 mg/mL
solubility (organic solvent or mixture, solvent Ethanol): 120 mg/mL
solubility (organic solvent or mixture, solvent Glycerol): 1.65 mg/mL
solubility (organic solvent or mixture, solvent Glycofurol): 200 mg/mL
solubility (organic solvent or mixture, solvent N-Methyl 2-Pyrrolidone): 17.6 mg/mL
solubility (organic solvent or mixture, solvent PEG 400): 10 mg/mL
solubility (organic solvent or mixture, solvent Propylene Glycol): 10 mg/mL
solubility (organic solvent or mixture, solvent Span 80): 3.5 mg/mL
solubility (organic solvent or mixture, solvent TPGS 1000): 50 mg/mL
solubility (organic solvent or mixture, solvent TWEEN 20®): 90 mg/mL
solubility (organic solvent or mixture, solvent TWEEN 80®): 60 mg/mL
Solubility of Docetaxel, Concentration (solvent Glycofurol): most soluble
Compound: CC(=O)O[C@@]12CO[C@@H]1C[C@H](O)[C@@]1(C)C(=O)[C@H](O)C3=C(C)[C@@H](OC(=O)[C@H](O)[C@@H](NC(=O)OC(C)(C)C)c4ccccc4)C[C@@](O)([C@@H](OC(=O)c4ccccc4)[C@H]21)C3(C)C [Docetaxel, (2R,3S)—N-carboxy-3-phenylisoserine, N-tert-butyl ester, 13-ester with 5β-20-epoxy-1,2α,4,7β,10β,13α-hexahydroxytax-11-en-9-one 4-acetate 2-benzoate, trihydrate]
